Data reported in patent US20100093642A1, “NOVEL POLYPEPTIDES” (priority 2006, published 2010).
≈ marks a conversion by molar mass, not a printed value. Residues, ends and D or L forms follow the SMILES beside them. No end group written: not given here.

Legend:
[1] = in vitro; format: cell-based, human; settings: human
Protocol: The toxicity of test peptides on THP-1 cells was measured using the MIT method (Mosmann, 1983), with minor modifications. To induce monocyte-macrophage differentiation, THP-1 cells were cultured in 96-well culture plates (10^6 cells/well) in a volume of 100 μl RPMI 1640 medium, containing 50 ng/ml PMA (which is known to induce the maturation of monocytes) and incubated in a humidified atmosphere of 5% CO2 at 37° C. for 48 hours. The medium was then removed and the cells were washed with PBS, added 100 μl fresh medium (without PMA) and incubated for another 24 hours. Medium was removed and the adherent macrophages were treated with 100 μl of peptide solution (concentrations ranging from 0 to 800 μg/ml), diluted in RPMI-1640 assay medium without FBS. After incubation at 37° C. for 1 hour, the cells were added LPS (0.1 μg/ml) and further incubated for 4 hours. Cells treated with Triton X-100 (1%) were used as positive control (100% killing) whereas cells plus medium only were used as negative control. Following the incubation period, 10 μl MTT (5 mg/ml) dissolved in phosphate-buffered saline (PBS) was added to each well, and the plate was further incubated for 2 hours. A volume of 70 μl of the supernatant was then removed and 100 μl acid alcohol (0.04 M HCl in isopropanol) added to each well to dissolve the dark blue crystals. The plate was placed on a shaker for 1 hour at room temperature and read spectrophotometrically at 595 nm in a microtiter plate reader (DTX880 Multimode Detector, Beckman Coulter). Cell survival (%) was then determined from the ΔA595 nm relative to negative control (100% living cells) and expressed as 50% inhibitory concentration (IC50). The IC50 values were estimated from the dose-response curves, which were obtained by averaging at least 3 parallel experiments.

[2] = tested on: Escherichia coli, ATCC 25922; format: cell-based; settings: non-clinical isolate; 37° C.; 3×10^6 cells per ml
Protocol: (§1) The antibacterial activities of the different peptides were determined by continuous monitoring of bacterial growth with a Bioscreen C microbiology reader (Labsystems Oy, Helsinki, Finland). The test was performed in 100-well flat-bottomed honeycomb plates, in which 50 μl of test fractions were incubated with 50 μl of a suspension of an actively growing culture of bacteria diluted in Mueller Hinton medium to a starting concentration of 3×10^4 cells per ml. The Gram-negative bacteria, Listonella (Vibrio) anguillarum, serotype O2 (FT 1801, a fish pathogenic strain), Pseudomonas aeruginosa and E. coli (ATCC 25922), and the Gram-positive bacteria, C. glutamicum (ATCC 13032) and S. aureus (ATCC 9144), were chosen as test bacteria. The growth chamber was maintained at either 20 or 37° C. during the incubation period. The absorbance was measured at 2 h intervals for 48 h by a turbidometric method with vertical light photometry and a wide band filter (420-580 nm), which is more insensitive to color change in the sample compared to single wavelength detection. Antibacterial activity was determined when the optical density (OD) of the growth control (bacteria plus water) reached an absorbance of 0.3-0.4. Fractions were regarded as active when the OD was less than 50% of the growth control. Polymyxin B (Sigma, St. Louis, Mo., USA), Lactoferricin B, Cecropin P1 and Hyalophora cecropia Cecropin B were used as reference.
(§2) The antimicrobial molecules were also tested against drug resistant clinical isolates, such as the commonly encountered multi-resistant human pathogen S. aureus (MRSA) K15-64 and the glycopeptide (vancomycin)-resistant Enterococccus faecium (GREF) K9-28. The non-clinical isolates Escherichia coli (ATCC 25922), Pseudomonas aeruginosa (ATCC 27853), Corynebacterium glutamicum (ATCC 13032), and Staphylococcus aureus (ATCC 9144) were also tested for comparison. Serial dilutions of synthetic peptides were made in double distilled water and tested according to the method described above. However, in these experiments the starting concentration of bacteria were 3×10^6 cells per ml and the temperature in the growth chamber was 37° C. Polymyxin B was used as positive control for the Gram-negative bacteria.

[3] = tested on: Pseudomonas aeruginosa ATCC 27853; format: cell-based; settings: non-clinical isolate; 37° C.; 3×10^6 cells per ml
Protocol: as §1, §2

[4] = tested on: Rhodotorula sp.; settings: 48 h
How it was run: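 Broth microdilution in half-strength potato dextrose broth, final 2×10^5 spores per ml, peptides in two-fold dilutions from 50 μM to 0.1 μM final. Incubated in the dark without shaking at 25° C. (37° C. for C. albicans) for 48 h; MIC is lowest concentration giving 50% inhibition of visible growth, scored microscopically.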

| Compound | CC50 at 5 h [1] | Minimal inhibitory concentration, Escherichia coli, ATCC 25922 [2] | Minimal inhibitory concentration, Pseudomonas aeruginosa ATCC 27853 [3] | Minimal inhibitory concentration (MIC), Rhodotorula sp. [4] |
| --- | --- | --- | --- | --- |
| CC[C@H](C)[C@H](NC(=O)CNC(=O)[C@H](CO)NC(=O)[C@H](CCCCN)NC(=O)[C@@H](NC(=O)[C@H](C)NC(=O)[C@H](Cc1c[nH]cn1)NC(=O)[C@H](CO)NC(=O)[C@@H](NC(=O)[C@H](CCCCN)NC(=O)[C@H](Cc1c[nH]cn1)NC(=O)[C@H](Cc1ccccc1)NC(=O)[C@@H](NC(=O)[C@H](CCCCN)NC(=O)[C@H](CCCCN)NC(=O)[C@H](Cc1ccccc1)NC(=O)C(Cc1c[nH]c2ccc(Br)cc12)NC(=O)CN)[C@@H](C)O)C(C)C)C(C)C)C(=O)N[C@@H](Cc1c[nH]cn1)C(=O)N[C@@H](C)C(=O)NCC(=O)N[C@@H](CCC(N)=O)C(=O)N[C@@H](CCCNC(=N)N)C(=O)NCC(=O)N[C@@H](CS)C(=O)N[C@@H](CO)C(=O)N[C@@H](C)C(=O)N[C@@H](CC(C)C)C(=O)NCC(=O)N[C@@H](Cc1ccccc1)C(=O)O (some centres unmarked) [P17 HC-Br] (HELM PEPTIDE1{G.[O=C(C(Cc1c[nH]c2ccc(Br)cc12)N[*:1])[*:2]].F.K.K.T.F.H.K.V.S.H.A.V.K.S.G.I.H.A.G.Q.R.G.C.S.A.L.G.F}$$$$V2.0) | 51.1 µM | 6.25 µM (≈ 20.8 µg/mL) | 6.25 µM (≈ 20.8 µg/mL) | 3.12 µM (≈ 10.4 µg/mL) |
| GWFKKTFHKVSHAVKSGIHAGQRGCSALGF [P17 HC] | 38 µM | 6.25 µM | 6.25 µM | 3.12 µM |
